Laboratory results published in patent US11685732B2, “MYST family histone acetyltransferase inhibitors” (Epizyme, Inc., priority 2017, dated 2023).

Columns and labels:
KAT-8 = KAT-8 (Homo sapiens (Human), UniProt Q9H7Z6); assay: KAT-8 biochemical inhibition assay (SAMDI mass spectrometry)
Method in brief: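 Compounds in 2% DMSO pre-incubated with 12.5 nM enzyme in 50 mM Tris pH 8.0 with Tween20, gelatin and 1 mM DTT. Then 1 μM peptide and 5 μM acetyl-CoA were added, 90 min at 25 °C; formic acid stop and SAMDI-TOF mass spectrometry for IC50.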

KAT-6A = KAT-6A (Homo sapiens (Human), UniProt Q92794); assay: KAT-6A biochemical inhibition assay (SAMDI mass spectrometry)
Method in brief: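 Enzyme (12.5 nM final) pre-incubated with serially diluted compounds (2% DMSO final) in 50 mM Tris pH 8.0 with Tween20, gelatin and 1 mM DTT. Reaction started with 1 μM peptide substrate and 1 μM acetyl-CoA, run 90 min at 25 °C, quenched with 0.5% formic acid, read by SAMDI-TOF mass spectrometry; IC50 derived.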

KAT-7 = KAT-7 (Homo sapiens (Human), UniProt O95251); assay: KAT-7 biochemical inhibition assay (SAMDI mass spectrometry)
Method in brief: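 KAT-7 (6 nM) was pre-incubated with serially diluted compound (2% DMSO) in Tris pH 8.0 with DTT. Reaction with 1 μM peptide and 2 μM acetyl-CoA ran 120 min at 25 °C and was stopped with 0.5% formic acid. Acetylation was read by SAMDI-TOF mass spectrometry to give IC50.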

KAT-5 = KAT-5 (Homo sapiens (Human), UniProt Q92993); assay: KAT-5 biochemical inhibition assay (SAMDI mass spectrometry)
Method in brief: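 KAT-5 at 9 nM final was preincubated with serially diluted compound (2% DMSO) in 50 mM Tris pH 8.0 with 1 mM DTT. Reaction ran with 1 μM peptide substrate and 0.5 μM acetyl-CoA for 90 min at 25° C, was quenched with 0.5% formic acid, and was read by SAMDI-TOF mass spectrometry.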

Sequence of KAT-6A (Q92794 other isoform, or with tags, fused parts or gaps): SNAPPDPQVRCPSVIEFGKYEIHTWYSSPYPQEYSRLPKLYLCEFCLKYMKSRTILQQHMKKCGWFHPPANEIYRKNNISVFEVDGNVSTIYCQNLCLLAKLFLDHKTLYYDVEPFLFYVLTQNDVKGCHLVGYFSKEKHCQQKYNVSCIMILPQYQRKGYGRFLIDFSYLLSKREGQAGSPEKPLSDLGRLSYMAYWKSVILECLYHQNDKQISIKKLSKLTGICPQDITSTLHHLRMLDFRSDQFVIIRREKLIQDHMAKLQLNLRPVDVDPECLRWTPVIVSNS
Sequence of KAT-8 (Q9H7Z6 other isoform, or with tags, fused parts or gaps): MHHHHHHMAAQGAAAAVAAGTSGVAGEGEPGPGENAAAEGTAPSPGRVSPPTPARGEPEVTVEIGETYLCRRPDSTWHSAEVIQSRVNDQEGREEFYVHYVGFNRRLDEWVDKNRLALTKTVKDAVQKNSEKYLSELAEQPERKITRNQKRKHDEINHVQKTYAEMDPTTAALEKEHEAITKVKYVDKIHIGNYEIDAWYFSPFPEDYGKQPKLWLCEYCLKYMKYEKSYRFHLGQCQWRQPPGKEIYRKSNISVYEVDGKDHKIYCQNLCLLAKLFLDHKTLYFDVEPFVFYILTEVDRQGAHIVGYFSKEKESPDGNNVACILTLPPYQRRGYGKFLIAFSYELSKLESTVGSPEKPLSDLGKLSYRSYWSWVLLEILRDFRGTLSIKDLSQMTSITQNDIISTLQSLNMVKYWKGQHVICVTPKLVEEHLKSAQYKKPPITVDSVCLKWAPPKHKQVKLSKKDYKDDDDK
Sequence of KAT-7 (O95251 other isoform, or with tags, fused parts or gaps): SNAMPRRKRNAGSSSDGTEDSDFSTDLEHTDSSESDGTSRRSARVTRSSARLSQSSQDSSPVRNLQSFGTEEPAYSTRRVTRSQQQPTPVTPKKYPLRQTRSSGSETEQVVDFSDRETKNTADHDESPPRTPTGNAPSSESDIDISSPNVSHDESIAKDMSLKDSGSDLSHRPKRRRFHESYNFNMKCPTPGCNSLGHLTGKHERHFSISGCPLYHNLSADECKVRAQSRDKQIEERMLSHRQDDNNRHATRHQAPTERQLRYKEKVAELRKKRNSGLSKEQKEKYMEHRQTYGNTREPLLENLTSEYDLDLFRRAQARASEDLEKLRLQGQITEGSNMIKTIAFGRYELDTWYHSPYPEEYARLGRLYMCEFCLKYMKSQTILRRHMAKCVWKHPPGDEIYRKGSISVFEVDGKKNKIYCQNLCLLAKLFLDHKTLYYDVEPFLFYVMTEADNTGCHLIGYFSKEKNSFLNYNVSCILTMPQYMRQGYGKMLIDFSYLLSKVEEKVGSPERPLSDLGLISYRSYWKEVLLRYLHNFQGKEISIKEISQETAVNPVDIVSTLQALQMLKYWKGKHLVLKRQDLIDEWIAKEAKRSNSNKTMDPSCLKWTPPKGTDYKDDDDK
Sequence of KAT-5 (Q92993 other isoform, or with tags, fused parts or gaps): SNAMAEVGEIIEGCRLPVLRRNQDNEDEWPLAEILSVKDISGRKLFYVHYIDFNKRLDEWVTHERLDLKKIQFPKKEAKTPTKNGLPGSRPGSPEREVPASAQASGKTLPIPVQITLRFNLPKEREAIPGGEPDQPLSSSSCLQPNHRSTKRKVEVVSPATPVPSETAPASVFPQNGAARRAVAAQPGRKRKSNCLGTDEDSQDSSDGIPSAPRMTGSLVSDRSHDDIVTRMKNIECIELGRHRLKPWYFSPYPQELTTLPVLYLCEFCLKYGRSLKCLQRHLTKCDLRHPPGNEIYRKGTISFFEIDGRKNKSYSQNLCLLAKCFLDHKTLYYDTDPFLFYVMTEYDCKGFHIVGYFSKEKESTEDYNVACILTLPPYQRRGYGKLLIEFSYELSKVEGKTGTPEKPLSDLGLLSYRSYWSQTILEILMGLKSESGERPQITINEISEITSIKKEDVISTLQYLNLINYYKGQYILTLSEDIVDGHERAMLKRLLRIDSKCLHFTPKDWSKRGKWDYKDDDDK

Row | IC50 (KAT-8) [µM] | IC50 (KAT-6A) [µM] | IC50 (KAT-7) [µM] | IC50 (KAT-5) [µM] | SMILES
1 | > 100 | 10 to 50 | < 10 | 10 to 50 | Cc1nc(-c2cc(Cl)c(F)c(C(=O)NNS(=O)(=O)CC3CCOCC3)c2)cn1C [Compound I-33]
2 | 10 to 50 | < 10 | < 10 | < 10 | CC(=O)N[C@H]1CC[C@H](CS(=O)(=O)NNC(=O)c2cc(-c3cn(C)cn3)cc(Cl)c2F)CC1 [Compound I-101]
3 | > 100 | 10 to 50 | 10 to 50 | 50 to 100 | Cc1nc(-c2cc(Cl)c(F)c(C(=O)NNS(=O)(=O)C3CCOCC3)c2)cn1C [Compound I-37]
4 | 10 to 50 | < 10 | < 10 | < 10 | Cn1cnc(-c2cc(Cl)c(F)c(C(=O)NNS(=O)(=O)CC3CCCC(NC(=O)c4cccnc4)C3)c2)c1 (centres unmarked) [Compound I-236]
5 | 10 to 50 | < 10 | < 10 | < 10 | Cn1cnc(-c2cc(Cl)c(F)c(C(=O)NNS(=O)(=O)C[C@H]3C[C@@H](NS(C)(=O)=O)C3)c2)c1 [Compound I-173]
6 | 10 to 50 | 10 to 50 | < 10 | 10 to 50 | COCCc1nc(-c2cc(Cl)c(F)c(C(=O)NNS(=O)(=O)CC3CCCCC3)c2)cn1C [Compound I-192]
7 | > 100 | > 100 | 50 to 100 | 10 to 50 | Cc1ncc(-c2cc(Cl)c(F)c(C(=O)NNS(=O)(=O)CC3CCCCC3)c2)n1C [Compound I-29]
8 | > 100 | > 100 | 10 to 50 | > 100 | CCn1c(-c2cc(Cl)c(F)c(C(=O)NNS(=O)(=O)C3CCCCC3)c2)cnc1C [Compound I-61]
9 | 10 to 50 | 10 to 50 | < 10 | 10 to 50 | Cn1cnc(-c2cc(Cl)c(F)c(C(=O)NNS(=O)(=O)CC3CN(S(C)(=O)=O)C3)c2)c1 [Compound I-220]
10 | 10 to 50 | < 10 | < 10 | < 10 | Cn1cnc(-c2cc(Cl)c(F)c(C(=O)NNS(=O)(=O)CC3CCCC(NC(=O)c4ccccc4)C3)c2)c1 (centres unmarked) [Compound I-230]
11 | 10 to 50 | < 10 | < 10 | < 10 | COc1ccc(CNC(=O)N[C@H]2C[C@@H](CS(=O)(=O)NNC(=O)c3cc(-c4cn(C)cn4)cc(Cl)c3F)C2)cc1 [Compound I-213]
12 | 10 to 50 | 10 to 50 | 10 to 50 | 10 to 50 | Cc1ncn(-c2cc(Cl)c(F)c(C(=O)NNS(=O)(=O)CC3CCOCC3)c2)n1 [Compound I-74]
13 | 10 to 50 | < 10 | < 10 | < 10 | CC(C)NC(=O)N1CCCC(CS(=O)(=O)NNC(=O)c2cc(-c3cn(C)cn3)cc(Cl)c2F)C1 (centres unmarked) [Compound I-187]
14 | 10 to 50 | < 10 | < 10 | < 10 | Cn1cnc(-c2cc(Cl)c(F)c(C(=O)NNS(=O)(=O)CC3CC4CC4C3)c2)c1 (centres unmarked) [Compound I-289]
15 | 10 to 50 | 10 to 50 | < 10 | < 10 | CCNC(=O)N(C)[C@H]1CC[C@@H](CS(=O)(=O)NNC(=O)c2cc(-c3cn(C)cn3)cc(Cl)c2F)CC1 [Compound I-363]
16 | 10 to 50 | 10 to 50 | < 10 | 10 to 50 | Cn1cnc(-c2cc(Cl)c(F)c(C(=O)NNS(=O)(=O)C[C@@H]3CCNC3)c2)c1 [Compound I-120]
17 | 10 to 50 | < 10 | < 10 | < 10 | CC(=O)N[C@H]1CC[C@@H](CS(=O)(=O)NNC(=O)c2cc(-c3cn(C)cn3)cc(Cl)c2F)CC1 [Compound I-184]
18 | 10 to 50 | 10 to 50 | < 10 | 10 to 50 | CNC(=O)N1CC(CS(=O)(=O)NNC(=O)c2cc(-c3cn(C)cn3)cc(Cl)c2F)C1 [Compound I-160]
19 | 10 to 50 | < 10 | < 10 | 10 to 50 | Cn1cnc(-c2cc(Cl)c(F)c(C(=O)NNS(=O)(=O)c3cn(C)cn3)c2)c1 [Compound I-237]
20 | 10 to 50 | < 10 | < 10 | < 10 | CN(C)C(=O)NC1CCC(CS(=O)(=O)NNC(=O)c2cc(-c3cn(C)cn3)cc(Cl)c2F)C1 (centres unmarked) [Compound I-336]

Row | IC50 (KAT-8) [µM] | IC50 (KAT-6A) [µM] | IC50 (KAT-7) [µM] | IC50 (KAT-5) [µM] | SMILES
21 | 10 to 50 | < 10 | < 10 | < 10 | CO[C@H]1CC[C@H](CS(=O)(=O)NNC(=O)c2cc(-c3cn(C)cn3)cc(Cl)c2F)CC1 [Compound I-329]
22 | > 100 | 50 to 100 | 10 to 50 | < 10 | COCCn1cnc(-c2cc(C)c(F)c(C(=O)NNS(=O)(=O)CC3CCCN(C(=O)OC(C)(C)C)C3)c2)c1 (centres unmarked) [Compound I-135]
23 | 10 to 50 | < 10 | < 10 | 10 to 50 | Cn1cnc(-c2cc(Cl)c(F)c(C(=O)NNS(=O)(=O)c3nccn3C)c2)c1 [Compound I-284]
24 | > 100 | 10 to 50 | < 10 | < 10 | CCn1cnc(-c2cc(C)c(F)c(C(=O)NNS(=O)(=O)C3CCCCC3)c2)c1 [Compound I-126]
25 | 10 to 50 | < 10 | < 10 | < 10 | Cn1cnc(-c2cc(Cl)c(F)c(C(=O)NNS(=O)(=O)c3cccnc3OCc3ccccc3)c2)c1 [Compound I-374]
26 | 10 to 50 | < 10 | < 10 | < 10 | Cn1cnc(-c2cc(Cl)c(F)c(C(=O)NNS(=O)(=O)CC3CCC(NC(=O)N4CCCCC4)C3)c2)c1 (centres unmarked) [Compound I-345]
27 | 10 to 50 | 10 to 50 | < 10 | < 10 | Cn1cnc(-c2cc(Cl)c(F)c(C(=O)NNS(=O)(=O)C[C@@H]3CCOC3)c2)c1 [Compound I-372]
28 | 10 to 50 | < 10 | < 10 | < 10 | Cn1cnc(-c2cc(Cl)c(F)c(C(=O)NNS(=O)(=O)C[C@H]3CC[C@H](NC(=O)C4CCC4)CC3)c2)c1 [Compound I-196]
29 | 10 to 50 | < 10 | < 10 | < 10 | CCNC(=O)N(C)[C@H]1CC[C@H](CS(=O)(=O)NNC(=O)c2cc(-c3cn(C)cn3)cc(Cl)c2F)CC1 [Compound I-338]
30 | 10 to 50 | < 10 | 10 to 50 | 10 to 50 | Cc1nc(-c2cc(Cl)c(F)c(C(=O)NNS(=O)(=O)CC3CCOCC3)c2)co1 [Compound I-80]
31 | < 10 | < 10 | < 10 | < 10 | Cn1cnc(-c2cc(Cl)c(F)c(C(=O)NNS(=O)(=O)C[C@H]3CC[C@@H](NC(N)=O)CC3)c2)c1 [Compound I-200]
32 | > 100 | 50 to 100 | 10 to 50 | 10 to 50 | COCCn1cnc(-c2cc(C)c(F)c(C(=O)NNS(=O)(=O)CC3CCCN(C(=O)COC)C3)c2)c1 (centres unmarked) [Compound I-137]
33 | 10 to 50 | < 10 | < 10 | < 10 | COc1ccc(CNC(=O)NC2CCC(CS(=O)(=O)NNC(=O)c3cc(-c4cn(C)cn4)cc(Cl)c3F)C2)cc1 (centres unmarked) [Compound I-327]
34 | 10 to 50 | < 10 | < 10 | < 10 | CN1CCN(C2CCCC(CS(=O)(=O)NNC(=O)c3cc(-c4cn(C)cn4)cc(Cl)c3F)C2)C1=O (centres unmarked) [Compound I-281]
35 | 10 to 50 | < 10 | < 10 | < 10 | CCOc1ccc(S(=O)(=O)NNC(=O)c2cc(-c3cn(C)cn3)cc(Cl)c2F)cc1 [Compound I-380]
36 | 10 to 50 | 10 to 50 | < 10 | 10 to 50 | Cn1cnc(-c2cc(Cl)c(F)c(C(=O)NNS(=O)(=O)CC3CCN(C(=O)CO)C3)c2)c1 (centres unmarked) [Compound I-89]
37 | > 100 | < 10 | < 10 | < 10 | CNc1ccccc1S(=O)(=O)NNC(=O)c1cc(-c2cn(C)cn2)cc(Cl)c1F [Compound I-385]
38 | 10 to 50 | < 10 | < 10 | < 10 | Cn1cnc(-c2cc(Cl)c(F)c(C(=O)NNS(=O)(=O)C[C@H]3CC[C@@H](NS(C)(=O)=O)CC3)c2)c1 [Compound I-248]
39 | 10 to 50 | < 10 | < 10 | < 10 | Cn1cc(-c2cc(Cl)c(F)c(C(=O)NNS(=O)(=O)CC3CCCCC3)c2)nn1 [Compound I-55]

Row | SMILES | IC50 (KAT-8) [µM] | IC50 (KAT-6A) [µM] | IC50 (KAT-7) [µM] | IC50 (KAT-5) [µM]
40 | Cn1cnc(-c2cc(Cl)c(F)c(C(=O)NNS(=O)(=O)C[C@H]3CC[C@H]4CC[C@@H]3N4)c2)c1 [Compound I-261] | 10 to 50 | 10 to 50 | 10 to 50 | 10 to 50
41 | Cn1cnc(-c2cc(Cl)c(F)c(C(=O)NNS(=O)(=O)CC3CCC4CCC3N4C(=O)OC(C)(C)C)c2)c1 (centres unmarked) [Compound I-250] | 10 to 50 | 10 to 50 | < 10 | < 10
